# Values quoted from earlier work as cited in patent US20170143824A1 (Teva Pharmaceutical Industries, Ltd., priority 2013, published 2017).
# Tested on: patients with RRMS
# Settings: registration trials, compared with placebo
substance,measurement,value
"L-glutamic acid polymer with L-alanine, L-lysine, L-tyrosine, acetate (salt) [glatiramer acetate]",reduction of relapse rate,about one third
